Measurements from patent US20160022684A1, “BET INHIBITOR AND BRUTON'S TYROSINE KINASE INHIBITOR COMBINATIONS” (Pharmacyclics LLC, priority 2014, published 2016).

Key:
Assay type in all cases: cell-based
[1] = system: TMD8; experiment: Combined drug treatment cell viability (CellTiter-Glo), ibrutinib with BET inhibitors, TMD8; conditions: JQ1 20 nM, 3 days
Description: (§1) The DLBCL cell lines used during the experiments included TMD8, OCI-LY3, OCI-LY10, U-2932 and SU-DHL-2. DLBCL cells at either 1×10^4 cells or 2×10^4 cells were plated onto each well of a 96-W plate (Table 1). […] The 96-W plate was then incubated for 3 days. Cell viability was examined using a CellTiter-Glo assay. A 40 μL of CellTiter-Glo reagent was added directly into each well of the 96-W plate. The plate was then shaken on a Shaker ([…]) at speed 5 for 10-20 min at room temperature. Next, about 100 μL of the mixed medium was transferred to a white, non-transparent, flat bottom 96-W plate for assaying. […] Measurements were taken at room temperature. CellTiter-Glow reagents were thawed prior to use. Cells pre-plated onto a second 96-W plate and incubated at room temperature for 30 minutes were used for calibration purposes. […] CI is a quantitative description of the interaction property of the combination of two drugs.

[2] = system: OCI-LY10; experiment: Combined drug treatment cell viability (CellTiter-Glo), ibrutinib with BET inhibitors, OCI-LY10; conditions: OCI-LY-10, JQ1 1 uM, 3 days
Description: as §1

[3] = system: OCI-LY3; experiment: Combined drug treatment cell viability (CellTiter-Glo), ibrutinib with BET inhibitors, OCI-LY3; conditions: OCI-LY-3, JQ1 1 uM, 3 days
Description: as §1

[4] = system: U-2932; experiment: Combined drug treatment cell viability (CellTiter-Glo), ibrutinib with BET inhibitors, U-2932; conditions: U2932, JQ1 20 nM, 3 days
Description: as §1

[5] = system: SU-DHL-2; experiment: Combined drug treatment cell viability (CellTiter-Glo), ibrutinib with BET inhibitors, SU-DHL-2; conditions: JQ1 100 nM, 3 days
Description: as §1

[6] = ibrutinib 0 nM (BET inhibitor alone): I-BET151 5 uM, OTX015 1 uM
[7] = ibrutinib 0.0256 nM with I-BET151 5 uM, OTX015 1 uM or medium alone (row)
[8] = ibrutinib 0.64 nM with I-BET151 5 uM, OTX015 1 uM or medium alone (row)
[9] = ibrutinib 3.2 nM with I-BET151 5 uM, OTX015 1 uM or medium alone (row)
[10] = ibrutinib 16 nM with I-BET151 5 uM, OTX015 1 uM or medium alone (row)
[11] = ibrutinib 80 nM with I-BET151 5 uM, OTX015 1 uM or medium alone (row)
[12] = ibrutinib 400 nM with I-BET151 5 uM, OTX015 1 uM or medium alone (row)
[13] = ibrutinib 2000 nM with I-BET151 5 uM, OTX015 1 uM or medium alone (row)
[14] = ibrutinib 10000 nM with I-BET151 5 uM, OTX015 1 uM or medium alone (row)
[15] = ibrutinib […] with I-BET151 5 uM, OTX015 1 uM or medium alone (row)

For Cc1sc2c(c1C)C(c1ccc(Cl)cc1)=N[C@@H](CC(=O)Nc1ccc(O)cc1)c1nnc(C)n1-2 [OTX015], which luminescent signals ([1]; ibrutinib 0 nM (BET inhibitor alone): I-BET151 200 nM, OTX015 100 nM) is on record?
The luminescent signals was 47319.47.

And the luminescent signals ([1]; ibrutinib 0.0256 nM with I-BET151 200 nM, OTX015 100 nM or medium alone (row))?
The luminescent signals was 11004.22.

And the luminescent signals ([1]; ibrutinib 0.64 nM with I-BET151 200 nM, OTX015 100 nM or medium alone (row))?
Its luminescent signals is 9847.13.

And the luminescent signals ([1]; ibrutinib 3.2 nM with I-BET151 200 nM, OTX015 100 nM or medium alone (row))?
Its luminescent signals is 9773.329.

And the luminescent signals ([1]; ibrutinib 16 nM with I-BET151 200 nM, OTX015 100 nM or medium alone (row))?
The luminescent signals was 9272.538.

What about the luminescent signals ([1]; ibrutinib 80 nM with I-BET151 200 nM, OTX015 100 nM or medium alone (row)) of the same compound?
Its luminescent signals is 9472.854.

And the luminescent signals ([1]; ibrutinib 400 nM with I-BET151 200 nM, OTX015 100 nM or medium alone (row))?
Its luminescent signals is 9301.531.

And the luminescent signals ([1]; ibrutinib 2000 nM with I-BET151 200 nM, OTX015 100 nM or medium alone (row))?
The luminescent signals was 10927.78.

And the luminescent signals ([1]; ibrutinib 10000 nM with I-BET151 200 nM, OTX015 100 nM or medium alone (row))?
The luminescent signals was 7055.879.

And the luminescent signals ([1]; ibrutinib […] with I-BET151 200 nM, OTX015 100 nM or medium alone (row))?
Its luminescent signals is 11191.36.

And the luminescent signals [2, 6]?
Its luminescent signals is 45142.68.

What about the luminescent signals [2, 7] of the same compound?
Its luminescent signals is 42481.51.

What about the luminescent signals [2, 8] of the same compound?
The luminescent signals was 40790.66.

What about the luminescent signals [2, 9] of the same compound?
The luminescent signals was 33872.14.

And the luminescent signals [2, 10]?
Its luminescent signals is 29764.67.

What about the luminescent signals [2, 11] of the same compound?
Its luminescent signals is 25880.72.

And the luminescent signals [2, 12]?
The luminescent signals was 25433.68.

What about the luminescent signals [2, 13] of the same compound?
Its luminescent signals is 24952.47.

What about the luminescent signals [2, 14] of the same compound?
The luminescent signals was 23945.32.

And the luminescent signals [2, 15]?
The luminescent signals was 42647.18.

And the luminescent signals [3, 6]?
Its luminescent signals is 12422.08.

And the luminescent signals [3, 7]?
Its luminescent signals is 14387.47.

And the luminescent signals [3, 8]?
Its luminescent signals is 13925.64.

And the luminescent signals [3, 9]?
The luminescent signals was 14043.72.

And the luminescent signals [3, 10]?
Its luminescent signals is 13776.07.

And the luminescent signals [3, 11]?
The luminescent signals was 14290.38.

What about the luminescent signals [3, 12] of the same compound?
The luminescent signals was 15615.51.

And the luminescent signals [3, 13]?
The luminescent signals was 15793.94.

And the luminescent signals [3, 14]?
The luminescent signals was 14418.95.

What about the luminescent signals [3, 15] of the same compound?
The luminescent signals was 12918.02.

What about the luminescent signals ([4]; ibrutinib 0 nM (BET inhibitor alone): I-BET151 200 nM, OTX015 50 nM (Table 2)) of the same compound?
Its luminescent signals is 55416.46.

And the luminescent signals ([4]; ibrutinib 0.0256 nM with I-BET151 200 nM, OTX015 50 nM (Table 2) or medium alone (row))?
The luminescent signals was 53427.04.

And the luminescent signals ([4]; ibrutinib 0.64 nM with I-BET151 200 nM, OTX015 50 nM (Table 2) or medium alone (row))?
Its luminescent signals is 50299.31.

And the luminescent signals ([4]; ibrutinib 3.2 nM with I-BET151 200 nM, OTX015 50 nM (Table 2) or medium alone (row))?
Its luminescent signals is 45013.52.

What about the luminescent signals ([4]; ibrutinib 16 nM with I-BET151 200 nM, OTX015 50 nM (Table 2) or medium alone (row)) of the same compound?
The luminescent signals was 49095.12.

What about the luminescent signals ([4]; ibrutinib 80 nM with I-BET151 200 nM, OTX015 50 nM (Table 2) or medium alone (row)) of the same compound?
Its luminescent signals is 44565.57.

What about the luminescent signals ([4]; ibrutinib 400 nM with I-BET151 200 nM, OTX015 50 nM (Table 2) or medium alone (row)) of the same compound?
Its luminescent signals is 48570.75.

What about the luminescent signals ([4]; ibrutinib 2000 nM with I-BET151 200 nM, OTX015 50 nM (Table 2) or medium alone (row)) of the same compound?
The luminescent signals was 44022.77.

And the luminescent signals ([4]; ibrutinib 10000 nM with I-BET151 200 nM, OTX015 50 nM (Table 2) or medium alone (row))?
Its luminescent signals is 33140.26.

What about the luminescent signals ([4]; ibrutinib […] with I-BET151 200 nM, OTX015 50 nM (Table 2) or medium alone (row)) of the same compound?
The luminescent signals was 51182.03.

And the luminescent signals ([5]; ibrutinib 0 nM (BET inhibitor alone): I-BET151 2 uM, OTX015 1 uM (Table 2))?
The luminescent signals was 945.707.

What about the luminescent signals ([5]; ibrutinib 0.0256 nM with I-BET151 2 uM, OTX015 1 uM (Table 2) or medium alone (row)) of the same compound?
The luminescent signals was 1016.636.

And the luminescent signals ([5]; ibrutinib 10000 nM with I-BET151 2 uM, OTX015 1 uM (Table 2) or medium alone (row))?
Its luminescent signals is 782.836.

What about the luminescent signals ([5]; ibrutinib […] with I-BET151 2 uM, OTX015 1 uM (Table 2) or medium alone (row)) of the same compound?
The luminescent signals was 1087.564.
